Biological target: P70S6K (Homo sapiens (Human), UniProt P23443, T412E)
Assay: P70S6K Enzyme Assay
Assay type: biochemical
Settings: P70S6K T412E mutant, 24 μM ATP, mobility shift (Caliper)
Protocol: P70S6K inhibitor compounds are diluted and plated in 96 well plates. […] The reaction is incubated for 90 min at 25° C., before the addition of 10 mM EDTA to stop the reaction. The proportion of substrate and product (phosphorylated) peptide is analysed on a Caliper Life Sciences Lab Chip 3000, using a pressure of −1.4 psi, and upstream and downstream voltages of −3000 and −700 respectively. Product peaks are resolved before substrate peaks on the resulting chromatograms.

P70S6K, sequence (P23443 1-421 T412E): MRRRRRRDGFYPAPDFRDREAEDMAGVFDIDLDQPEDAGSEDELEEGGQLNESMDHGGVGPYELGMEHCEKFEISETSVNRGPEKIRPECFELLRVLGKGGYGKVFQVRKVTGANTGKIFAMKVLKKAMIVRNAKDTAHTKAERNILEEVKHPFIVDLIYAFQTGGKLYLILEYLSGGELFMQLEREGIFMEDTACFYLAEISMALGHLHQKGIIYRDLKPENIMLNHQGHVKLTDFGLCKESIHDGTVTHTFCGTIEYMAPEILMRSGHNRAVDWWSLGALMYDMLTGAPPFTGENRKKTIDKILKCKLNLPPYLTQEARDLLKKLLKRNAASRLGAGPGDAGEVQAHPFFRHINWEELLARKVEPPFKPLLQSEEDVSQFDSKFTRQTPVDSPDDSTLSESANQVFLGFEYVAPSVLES

Row | IC50 [nM] | SMILES
1 | > 1000 | NC(=O)c1ccc(NC(CN2CCCC2)c2ccccc2)c2cccnc12 (stereo not shown) [Example 39]
2 | 290 | NC(=O)c1ccc(N2CCC(CNC(=O)c3ccc(C(F)(F)F)cc3F)C2)c2cncnc12 (racemic) [Example 55, 5-(3-((2-fluoro-4-(trifluoromethyl)benzamido)methyl)pyrrolidin-1-yl)quinazoline-8-carboxamide]
3 | 260 | NC(=O)c1ccc(N2CCC(CNC(=O)c3ccc(F)cc3F)C2)c2cncnc12 (racemic) [Example 112, 5-{3-[(2,4-Difluoro-benzoylamino)-methyl]-pyrrolidin-1-yl}-quinazoline-8-carboxylic acid amide]
4 | 680 | NC(=O)c1ccc(NCc2ccccc2)c2cccnc12 [Example 42, 5-(Benzylamino)quinoline-8-carboxamide]
5 | > 1000 | CNC[C@@H](Nc1ccc(C(N)=O)c2ncccc12)c1cccc(F)c1 [Example 16, (S)-5-((1-(3-fluorophenyl)-2-(methylamino)ethyl)amino)quinoline-8-carboxamide]
6 | > 1000 | NCC1(C(=O)Nc2ccccc2)CCCN(c2ccc(C(N)=O)c3ncncc23)C1 (racemic) [Example 11, 5-(3-(aminomethyl)-3-(phenylcarbamoyl)piperidin-1-yl)quinazoline-8-carboxamide]
7 | 2150 | NC(=O)c1ccc(N2CC[C@@](N)(C(=O)Nc3ccccc3)C2)c2cncnc12 (single isomer, unassigned) [Example 84]
8 | 11000 | COc1ccccc1N1CCN(c2ccc(C(N)=O)c3ncncc23)CC1 [Example 122, 5-[4-(2-methoxyphenyl)-piperazin-1-yl]-quinazoline-8-carboxylic acid amide]
9 | 380 | NC(=O)c1ccc(N2CC[C@](N)(C(=O)Nc3ccc(F)c(C(F)(F)F)c3)C2)c2cncnc12 (single isomer, unassigned) [Example 117]
10 | 54 | NC(=O)c1ccc(N[C@@H]2CNCC[C@H]2c2ccc(C(F)(F)F)c(F)c2)c2cncnc12 (single isomer, unassigned) [Example 6]
11 | 120 | NC(=O)c1ccc(N2CCC(c3ccccc3)C(N)C2)c2cncnc12 (racemic) [Example 82, 5-(3-amino-4-phenylpiperidin-1-yl)quinazoline-8-carboxamide]
12 | 160 | NC(=O)c1ccc(NC2CNC[C@@H]2c2cc(F)cc(Cl)c2)c2cncnc12 (mixture of isomers) [Example 2, 5-((4-(3-chloro-5-fluorophenyl)pyrrolidin-3-yl)amino)quinazoline-8-carboxamide]
13 | 2400 | NC(=O)c1ccc(N2CC[C@H](c3cccc(F)c3)[C@@H](N)C2)c2cncnc12 (racemic) [Example 89, 5-[(3R,4R)-3-Amino-4-(3-fluoro-phenyl)-piperidin-1-yl]-quinazoline-8-carboxylic acid amide]
14 | 1000 | NC(=O)c1ccc(N2CCN(c3ccc(Cl)cc3)CC2)c2cncnc12 [Example 93, 5-[4-(4-chloro-phenyl)-piperazin-1-yl]-quinazoline-8-carboxylic acid amide]
15 | 650 | NC(=O)c1ccc(NCC2(C(=O)Nc3ccccc3)CCNC2)c2cncnc12 (racemic) [Example 12, 5-(((3-(phenylcarbamoyl)pyrrolidin-3-yl)methyl)amino)quinazoline-8-carboxamide]
16 | 1200 | NC(=O)c1ccc(N2CCC(N)(C(=O)Nc3ccc(F)cc3)C2)c2cncnc12 (racemic) [Example 43, 5-[3-amino-3-[(4-fluorophenyl)carbamoyl]pyrrolidin-1-yl]quinazoline-8-carboxamide]
17 | 5400 | NC(=O)c1ccc(N2CCC(NC(=O)Cc3ccc(F)cc3)C2)c2cncnc12 (racemic) [Example 51, 5-(3-(2-(4-fluorophenyl)acetamido)pyrrolidin-1-yl)quinazoline-8-carboxamide]
18 | 7900 | NC(=O)c1ccc(N2CCC(NC(=O)Cc3ccccc3)C2)c2cncnc12 (racemic) [Example 47, 5-(3-(2-phenylacetamido)pyrrolidin-1-yl)quinazoline-8-carboxamide]
19 | 190 | NC(=O)c1ccc(NC2CNC[C@@H]2c2ccc3cccnc3c2)c2cccnc12 (mixture of isomers) [Example 17, 5-((-4-(quinolin-7-yl)pyrrolidin-3-yl)amino)quinoline-8-carboxamide]
20 | 2000 | NC(=O)c1ccc(N2CCC(N)(C(=O)Nc3cccc(F)c3)C2)c2cncnc12 (racemic) [Example 45, 5-(3-amino-3-((3-fluorophenyl)carbamoyl)pyrrolidin-1-yl)quinazoline-8-carboxamide]
21 | > 1000 | NC(=O)c1ccc(NCc2ccc(Cl)c(C(F)(F)F)c2)c2cccnc12 [Example 38, 5-(4-Chloro-3-trifluoromethylbenzylamino)-quinoline-8-carboxamide]

Further lines, the molecule ahead of its results:

Row | SMILES | IC50 [nM]
22 | NC(=O)c1ccc(NC2(c3ccccc3)CNC2)c2cccnc12 [Example 19, 5-((3-phenylazetidin-3-yl)amino)quinoline-8-carboxamide] | > 1000
23 | NC(=O)c1ccc(N2CCC(N)(CNC(=O)c3ccc(F)cc3O)C2)c2cncnc12 (racemic) [Example 10, 5-(3-amino-3-((4-fluoro-2-hydroxybenzamido)methyl)pyrrolidin-1-yl)quinazoline-8-carboxamide] | > 1000
24 | NC(=O)c1ccc(N2CCC(N)(C(=O)Nc3ccc(F)c(F)c3)C2)c2cncnc12 (racemic) [Example 44, 5-(3-amino-3-((3,4-difluorophenyl)carbamoyl)pyrrolidin-1-yl)quinazoline-8-carboxamide] | 1300
25 | NC(=O)c1ccc(N2CCN(c3ccccc3F)CC2)c2cncnc12 [Example 121, 5-[4-(2-fluorophenyl)-piperazin-1-yl]-quinazoline-8-carboxylic acid amide] | 12000
26 | NC(=O)c1ccc(N2CCC(N)(CNC(=O)c3ccc(F)cc3F)C2)c2cncnc12 (racemic) [Example 9, 5-(3-amino-3-((2,4-difluorobenzamido)methyl)pyrrolidin-1-yl)quinazoline-8-carboxamide] | > 1000
27 | NC(=O)c1ccc(NCc2ccc(F)c(C(F)(F)F)c2)c2cccnc12 [Example 37, 5-(4-Fluoro-3-trifluoromethylbenzylamino)-quinoline-8-carboxamide] | 695
28 | NC(=O)c1ccc(NCCCc2ccccc2)c2cccnc12 [Example 41, 5-(Phenylpropylamino)-quinoline-8-carboxamide] | > 1000
29 | NC(=O)c1ccc(NCc2cccc(Cl)c2)c2cccnc12 [Example 34, 5-(3-Chlorobenzylamino)-quinoline-8-carboxamide] | 140
30 | NC(=O)c1ccc(N2CCC(NC(=O)c3ccc(F)c(F)c3)C2)c2cncnc12 (racemic) [Example 50, 5-(3-(3,4-difluorobenzamido)pyrrolidin-1-yl)quinazoline-8-carboxamide] | 380
31 | NC(=O)c1ccc(NC(=O)C(N)c2ccccc2)c2cccnc12 (racemic) [Example 29, 5-(2-amino-2-phenylacetamido)quinoline-8-carboxamide] | > 1000
32 | NC(=O)c1ccc(N2CCC(c3ccc(C(F)(F)F)cc3)C(N)C2)c2cncnc12 (racemic) [Example 83, 5-(3-amino-4-(4-(trifluoromethyl)phenyl)piperidin-1-yl)quinazoline-8-carboxamide] | 350
33 | NC(=O)c1ccc(NC2CNC[C@@H]2c2cccc(OC(F)(F)F)c2)c2cccnc12 (single isomer, unassigned) [Example 22] | 31
34 | CN(C)CCN(Cc1ccccc1)C(=O)C1CCN(c2ccc(C(N)=O)c3ncncc23)C1 (racemic) [Example 49, 5-(3-(benzyl(2-(dimethylamino)ethyl)carbamoyl)pyrrolidin-1-yl)quinazoline-8-carboxamide] | 1600
35 | NC(=O)c1ccc(NC2CNCCC2c2ccccc2)c2cncnc12 (racemic) [Example 3, 5-((4-phenylpiperidin-3-yl)amino)quinazoline-8-carboxamide] | 4.1
36 | NCC(c1ccc(C(F)(F)F)cc1)N1CCN(c2ccc(C(N)=O)c3ncncc23)CC1 (racemic) [Example 8, 5-(4-(2-amino-1-(4-(trifluoromethyl)phenyl)ethyl)piperazin-1-yl)quinazoline-8-carboxamide] | 210
37 | NC(=O)c1ccc(N2CCC(CNC(=O)c3ccc(F)c(F)c3)C2)c2cncnc12 (racemic) [Example 54, 5-(3-((3,4-difluorobenzamido)methyl)pyrrolidin-1-yl)quinazoline-8-carboxamide] | 233
38 | NC(=O)c1ccc(NC2CNC[C@@H]2c2cccc(OC(F)(F)F)c2)c2cccnc12 (mixture of isomers) [Example 21, 5-((-4-(3-(trifluoromethoxy)phenyl)pyrrolidin-3-yl)amino)quinoline-8-carboxamide] | 22
39 | Cc1ccccc1N1CCN(c2ccc(C(N)=O)c3ncncc23)CC1 [Example 120, 5-[4-(2-methyl-phenyl)-piperazin-1-yl]-quinazoline-8-carboxylic acid amide] | 980
40 | NC(=O)c1ccc(NC2CNCCC2c2ccc(C(F)(F)F)c(F)c2)c2cncnc12 (racemic) [Example 4, 5-((4-(3-fluoro-4-(trifluoromethyl)phenyl)piperidin-3-yl)amino)quinazoline-8-carboxamide] | 5.9
41 | NC(=O)c1ccc(NC2CNC[C@H]2c2cc(F)cc(Cl)c2)c2cccnc12 (stereo partly drawn) [Example 26, 5-(((4R)-4-(3-chloro-5-fluorophenyl)pyrrolidin-3-yl)amino)quinoline-8-carboxamide] | 350
42 | NC(=O)c1ccc(NC2CNCC[C@@H]2c2cccc(F)c2)c2cccnc12 (mixture of isomers) [Example 25, 5-((4-(3-fluorophenyl)piperidin-3-yl)amino)quinoline-8-carboxamide] | 520
43 | NC(=O)c1ccc(N2CC[C@H](c3ccc(F)cc3)[C@@H](N)C2)c2cncnc12 (racemic) [Example 87, 5-[(3R,4R)-3-Amino-4-(4-fluoro-phenyl)-piperidin-1-yl]-quinazoline-8-carboxylic acid amide] | 7100

Source: patent US9139568B2 (Merck Patent GmbH, priority 2011, dated 2015)
